Source: PMC6719084, “Activating the Intrinsic Pathway of Apoptosis Using BIM BH3 Peptides Delivered by Peptide Amphiphiles with Endosomal Release” (Materials, 2019)

Molecular target: T1, human cathepsin B (Homo sapiens, UniProt P07858)
T1 construct: Cathepsin B purified from human liver (Sigma-Aldrich, St. Louis, MO, USA); purchased Sigma-Aldrich; host or cells: human liver
Assay: Fluorogenic cathepsin-cleavage assay (Z-RR-AMC)
Format: biochemical
Conditions: recombinant cathepsin B, in vitro
From the text: The fluorogenic cathepsin-cleavage assay was done as previously described using the cathepsin B cleavage substrate Z-Arg-Arg-7-amido-4-methylcoumarin hydrochloride (Z-RR-AMC; Sigma-Aldrich, St. Louis, MO, USA) and human cathepsin B with or without the cathepsin inhibitor CA-074Me (EMD Millipore, Burlington, MA, USA).

Compound: CCCNC(=O)[C@H]1O[C@@H]1C(=O)N[C@H](C(=O)N1CCC[C@H]1C(=O)OC)[C@@H](C)CC [CA-074Me]
- inhibition of cathepsin B cleavage of fluorogenic reporter substrate: blocked reporter substrate cleavage
